Experimental data as given in US8772504B2, “Substituted benzoxazole, benzimidazole, oxazolopyridine and imidazopyridine derivatives as gamma secretase modulators” (Janssen Pharmaceuticals, Inc., priority 2009, dated 2014).

Key:
Aβtotal [1] = test: Screening for γ-secretase-modulating activity, Method 1: Aβtotal sandwich ELISA on SKNBE2 cell media; format: cell-based; details: Homo sapiens, SKNBE2 cells carrying APP 695 wild type
Outline: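 SKNBE2 cells expressing wild-type APP 695 were treated with compound for 18 hours. Aβtotal in the medium was measured by sandwich ELISA (6E10 capture, biotinylated 4G8 detection, fluorogenic peroxidase read-out). IC50 came from a 4-parameter fit of % inhibition with top/bottom fixed at 100/0 and Hill slope 1, or as averaged IC50 from % of untreated control.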

Aβ42 [2] = test: Screening for γ-secretase-modulating activity, Method 1: Aβ42 sandwich ELISA on SKNBE2 cell media; format: cell-based; details: Homo sapiens, SKNBE2 cells carrying APP 695 wild type
Outline: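 SKNBE2 cells expressing wild-type APP695 were treated with compound for 18 h in Ultraculture/1% glutamine. Secreted Aβ42 was quantified by sandwich ELISA (C-terminal capture, biotinylated 3D6, TMB, 450 nm), with WST-1 used as a toxicity check. IC50 was derived from 4-parameter fits of % inhibition or % of untreated control.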

Aβ42 [3] = test: Screening for γ-secretase-modulating activity, Method 2: Aβ42 Alphalisa on SKNBE2 cell supernatant; format: cell-based; details: Method 2, Table 3c, SKNBE2 cells carrying APP 695 wild type, overnight incubation
Outline: (§1)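 SKNBE2 cells expressing wild-type APP695, plated at 10^4 cells/well with compound at several concentrations and incubated overnight at 37° C. Aβ42 (C-terminal capture, N-terminal biotinylated detection) and Aβtotal (N-terminal/4G8 pair) measured in supernatant by AlphaLISA. IC50 from 4-parameter fit of percent of compound-free control.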

Aβtotal [4] = test: Screening for γ-secretase-modulating activity, Method 2: Aβtotal Alphalisa on SKNBE2 cell supernatant; format: cell-based; details: Method 2, Table 3c, SKNBE2 cells carrying APP 695 wild type, overnight incubation
Outline: as §1

Aβtotal [5] = test: In vivo efficacy Method 2: brain soluble Aβtotal by ELISA; set-up: species or system mouse; details: Table 4b, single oral dose, overnight fasted non-transgenic animals, sacrificed after 4 h, soluble fraction of brain homogenates
Text: (§2) To determine whether acute administration of an Aβ42 lowering agent would reduce Aβ42 levels in vivo, non-transgenic rodents, e.g. mice or rats were used. Animals treated with the Aβ42 lowering agent were examined and compared to those untreated or treated with vehicle and brain levels of soluble Aβ42 and total Aβ were quantitated by standard techniques, for example, using ELISA. Treatment periods varied from hours (h) to days and were adjusted based on the results of the Aβ42 lowering once a time course of onset of effect could be established.
(§3) A typical protocol for measuring Aβ42 lowering in vivo is shown but it is only one of many variations that could be used to optimize the levels of detectable Aβ. For example, Aβ42 lowering compounds were formulated in 20% of Captisol® (a sulfobutyl ether of β-cyclodextrin) in water or 20% hydroxypropyl β cyclodextrin. The Aβ42 lowering agents were administered as a single oral dose or by any acceptable route of administration to overnight fasted animals. After 4 h, the animals were sacrificed and Aβ42 levels were analysed.
(§4) Blood was collected by decapitation and exsanguinations in EDTA-treated collection tubes. Blood was centrifuged at 1900 g for 10 minutes (min) at 4° C. and the plasma recovered and flash frozen for later analysis. The brain was removed from the cranium and hindbrain. The cerebellum was removed and the left and right hemisphere were separated. The left hemisphere was stored at −18° C. for quantitative analysis of test compound levels. The right hemisphere was rinsed with phosphate-buffered saline (PBS) buffer and immediately frozen on dry ice and stored at −80° C. until homogenization for biochemical assays.
(§5) Mouse brains from non-transgenic animals were resuspended in 8 volumes of 0.4% DEA (diethylamine)/50 mM NaCl containing protease inhibitors (Roche-11873580001 or 04693159001) per gram of tissue, e.g. for 0.158 g brain, add 1.264 ml of 0.4% DEA. All samples were homogenized in the FastPrep-24 system (MP Biomedicals) using lysing matrix D (MPBio #6913-100) at 6 m/s for 20 seconds. Homogenates were centrifuged at 221.300×g for 50 min. The resulting high speed supernatants were then transferred to fresh eppendorf tubes. Nine parts of supernatant were neutralized with 1 part 0.5 M Tris-HCl pH 6.8 and used to quantify Aβtotal and Aβ42.
(§6) To quantify the amount of Aβtotal and Aβ42 in the soluble fraction of the brain homogenates, Enzyme-Linked-Immunosorbent-Assays were used . Briefly, the standards (a dilution of synthetic Aβ1-40 and Aβ1-42, Bachem) were prepared in 1.5 ml Eppendorf tube in Ultraculture, with final concentrations ranging from 10000 to 0.3 pg/ml. The samples and standards were co-incubated with HRPO-labelled N-terminal antibody for Aβ42 detection and with the biotinylated mid-domain antibody 4G8 for Aβtotal detection. 50 μl of conjugate/sample or conjugate/standards mixtures were then added to the antibody-coated plate (the capture antibodies selectively recognize the C-terminal end of Aβ42, antibody JRF/cAβ42/26, for Aβ42 detection and the N-terminus of Aβ, antibody JRF/rAβ/2, for Aβtotal detection). The plate was allowed to incubate overnight at 4° C. in order to allow formation of the antibody-amyloid complex. Following this incubation and subsequent wash steps the ELISA for Aβ42 quantification was finished by addition of Quanta Blu fluorogenic peroxidase substrate according to the manufacturer's instructions (Pierce Corp., Rockford, Ill.). A reading was performed after 10 to 15 min (excitation 320/emission 420).
For Aβtotal detection, a Streptavidine-Peroxidase-Conjugate was added, followed 60 min later by an additional wash step and addition of Quanta Blu fluorogenic peroxidase substrate according to the manufacturer's instructions (Pierce Corp., Rockford, Ill.). A reading was performed after 10 to 15 min (excitation 320 nm/emission 420 nm).

Aβ42 [6] = test: In vivo efficacy Method 2: brain soluble Aβ42 by ELISA; set-up: species or system mouse; details: Table 4b, single oral dose, overnight fasted non-transgenic animals, sacrificed after 4 h, soluble fraction of brain homogenates
Text: as §2, §3, §4, §5, §6
In this model at least 20% Aβ42 lowering compared to untreated animals would be advantageous.

[7] = Table 3a, 18 hours, XLfit, top/bottom fixed to 100 and 0, hill slope 1
[8] = Table 3b, non-linear regression of % of control, averaged IC50 values

| Structure (SMILES) | IC50 (Aβtotal [1]; [7]) [nM] | IC50 (Aβtotal [1]; [8]) [nM] | melting point [°C] | IC50 (Aβ42 [2]; [7]) [nM] | IC50 (Aβ42 [2]; [8]) [nM] | IC50 (Aβ42 [3]; Homo sapiens) [nM] | IC50 (Aβtotal [4]; Homo sapiens) [nM] | IC50 (Aβ42 [3]) [nM] | IC50 (Aβtotal [4]) [nM] | Aβtotal (% Ctrl) _Mean (Aβtotal [5]) [% Ctrl] | Aβ42 (% Ctrl) _Mean (Aβ42 [6]) [% Ctrl] |
| --- | --- | --- | --- | --- | --- | --- | --- | --- | --- | --- | --- |
| COc1cc(Nc2cccc3c2nc(N2CCC(F)(F)CC2)n3C)ccc1-n1cnc(C)c1 [Compound 12] | > 3000 | > 3000 | 81.2 | 84 | 76 | – | – | – | – | – | – |
| COc1nc(Nc2cc(C(C)C)nc3c2nc(-c2ccc(F)cc2)n3C)ccc1-n1cnc(C)c1 [Compound 111] | – | – | 172.3 | – | – | 4 | 4790 | – | – | – | – |
| COc1cc(-c2nc3c(Nc4ccc(-n5cnc(C)c5)c(F)c4)nc(C)cc3n2C)ccc1Cl [Compound 136] | – | – | – | – | – | – | – | 9 | > 10000 | 104 | 77 |
| CC(=O)Nc1cccc(-c2nc3c(Nc4ccc(-n5cnc(C)c5)c(F)c4)nc(C)cc3n2C)c1 [Compound 141] | – | – | 257.2 | – | – | 79 | > 10000 | – | – | – | – |
| Cc1cn(-c2ccc(Nc3nc(C)cc4c3nc(-c3cccc(N(C)C)c3)n4C)cc2F)cn1 [Compound 142] | – | – | – | – | – | – | – | 15 | 9330 | 98 | 73 |
| COc1cc(Nc2ccc(-n3cnc(C)c3)c(OC)n2)c2nc(-c3ccc(F)cc3)n(C)c2c1 [Compound 160] | – | – | – | – | – | – | – | 5 | > 10000 | 78 | 84 |
| COc1nc(Nc2cccc3c2nc(-c2ccc(F)cc2)n3C(C)C)ccc1-n1cnc(C)n1 [Compound 162] | – | – | – | – | – | – | – | 5 | 5620 | 97 | 79 |
| COc1nc(Nc2cccc3c2nc(-c2cc(F)cc(F)c2)n3C)ccc1-n1cnc(C)c1.Cl.Cl.O [Compound 165] | – | – | – | – | – | – | – | 6 | 3720 | 85 | 44 |
| COc1nc(Nc2cccc3c2nc(-c2cccc(C(F)(F)F)c2)n3C)ccc1-n1cnc(C)c1 [Compound 167] | – | – | – | – | – | – | – | 7 | 5250 | 84 | 46 |
| COc1nc(Nc2cccc3c2nc(-c2cccc(NC(C)=O)c2)n3C)ccc1-n1cnc(C)c1 [Compound 174] | – | – | – | – | – | 38 | 9550 | – | – | 104 | 90 |
| COc1cc(-c2nc3c(Nc4ccc(-n5cnc(C)c5)c(OC)n4)cccc3n2C)ccc1F [Compound 184] | – | – | – | – | – | 13 | > 10000 | – | – | 88 | 31 |
| COc1cc(OC)cc(-c2nc3c(Nc4ccc(-n5cnc(C)c5)c(OC)n4)cccc3n2C)c1.Cl.Cl.O [Compound 186] | – | – | – | – | – | – | – | 12 | 8320 | 88 | 38 |
| COc1nc(Nc2cccc3c2nc(-c2cc(C(F)(F)F)ccc2F)n3C)ccc1-n1cnc(C)c1 [Compound 187] | – | – | – | – | – | 36 | 7240 | – | – | 96 | 75 |
| COc1nc(Nc2cccc3c2nc(-c2cccc(OC(F)(F)F)c2)n3C)ccc1-n1cnc(C)c1 [Compound 189] | – | – | – | – | – | – | – | 17 | 8320 | 95 | 48 |
| COc1cc(Nc2ccc(-n3cnc(C)c3)c(OC)n2)c2nc(-c3ccc(F)cc3)n(C)c2n1 [Compound 202] | – | – | – | – | – | – | – | 5 | > 10000 | 102 | 82 |
